Source: patent US10894036B2, “Use of marizomib for the treatment of central nervous system (CNS) cancers” (Celgene International II Sàrl, priority 2016, dated 2021)
Several values for one entry are separate records, joined by “and”; a condition that tells them apart may be missing. Equal entries are not always repeated. Entries after “also recorded” stand apart in the source; their conditions may differ.

Columns and labels:
[1] = Compassionate use of marizomib in CNS-myeloma patients: safety; type: in vivo, human
Protocol: (§1) This example sets forth seven case studies in which CNS-MM (i.e., multiple myeloma with CNS involvement) was treated using marizomib alone or in combination with other agents.
As set forth herein, 7 patients were treated under single patient compassionate use protocols with MRZ for CNS-myeloma. Marizomib was well-tolerated. […] One patient has been on the study for 13 months with complete resolution of both […].

D54MG cells = experiment: Intracranial GBM xenograft survival; type: in vivo; conditions: athymic BALB/c nu/nu mice, MRZ IV twice weekly
Protocol: 1×10^5 D54MG cells implanted into right frontal lobes of athymic BALB/c nu/nu mice. MRZ administered IV twice weekly.

CNS-MM = experiment: Compassionate use of marizomib in CNS-myeloma patients: response (IMWG, CSF, MRI, neurological); type: in vivo, human
Protocol: as §1
Daratumumab (16 mg/kg weekly×2 months) was added with continued marizomib.
Marizomib was given on compassionate use protocol (see above) at 0.7 mg/m^2 as a 10 min IV infusion on days 1, 8 and 15 along with dexamethasone on a 28 day Cycle.
In July 2016, marizomib was given on compassionate use protocol at 0.8 mg/m^2 as a 10 min IV infusion on days 1, 8 and 15 along with dexamethasone on a 28 day Cycle. Pomalidomide was also given at 4 mg daily on days 1 through days 21.
In August 2016, marizomib was given on compassionate use protocol at 0.7 mg/m^2 as a 10 min IV infusion on days 1, 8 and 15 along with dexamethasone on a 28 day Cycle. Pomalidomide was dosed at 4 mg daily on days 1 through days 21.
The patient was treated with marizomib, oral pomalidomide, and oral dexamethasone.
All patients had systemic disease with CNS involvement.

[2] = Quantitative whole body autoradiography: distribution to brain; type: in vivo, rat; conditions: rats
From the text: The definition of marizomib is understood to include marizomib as well as pharmaceutically acceptable salts, prodrugs, solvates, hydrates, tautomers, or isomers thereof. In specific embodiments, the term marizomib refers to Compound 1 or a pharmaceutically acceptable salt thereof. Without wishing to be bound by theory, marizomib is a proteasome inhibitor with unique features compared to other proteasome inhibitors. For example, marizomib inhibits all three catalytic activities of the proteasome and is capable of crossing the blood brain barrier (BBB). […] Radiolabeled marizomib has shown 30% CNS biodistribution compared with blood levels in rats. Marizomib can elicit a significant anti-tumor effect in a rodent model of malignant glioma.

20S Proteasome = experiment: 20S proteasome activity (% inhibition) in rodent brain; type: in vivo, mouse
clinical = conditions: human
Protocol: Blood samples will be taken for peak and trough measurements, pre-dose and immediately prior to (end of infusion) EOI, on Cycle 1 Day 1. On Cycle 1 Day 15 full PK sampling will be done: pre-dose, immediately prior to EOI and then 2, 5, 15, 30, 45, 60, 90 and 120 minutes post infusion. The following PK parameters will be estimated by non-compartmental analysis:
Non-compartmental analyses will be performed. […] Blood concentrations and computed PK parameters for MRZ will be listed and summarized by cohort (mean, geometric mean, standard deviation, coefficient of variation, minimum, maximum and number of observations).
For MRZ samples will be obtained before treatment and just prior to end of infusion on Cycle 1 Day 1. On Cycle 1 Day 15, MRZ blood samples will be obtained before treatment, just prior to end of infusion, and 2, 5, 15, 30, 45, 60, 90, and 120 minutes after the infusion. Every effort should be made to collect samples at the prescribed times, but deviations up to 10% of the time point are allowed. […] After blood collection, neutralizing solution must be added.

[3] = 10 mg/kg dose, Gordon et al., 2001; cited from earlier work
[4] = BEV serum pharmacokinetics (Phase 1 MRZ + BEV); type: in vivo, human; conditions: for BEV pharmacokinetic parameters: effect of co-administration: with MRZ
Protocol: The drugs were infused on 28-Day Cycles. Tumor response is assessed every other cycle by RANO criteria.

[5] = 7 CNS-MM patients, listed as Marizomib
[6] = tumor-bearing mouse, IV, individual mice 1 and 2
[7] = tumor-bearing mouse, IV, individual mice 1 and 2, NE = No Effect, listed as MRZ
[8] = tumor-bearing mouse, IV, individual mice 1 and 2, listed as MRZ
[9] = whole blood, intravenous, 0.7 mg/m2
[10] = whole blood, intravenous, 0.8 mg/m2
[11] = BEV 10 mg/kg IV, serum, C1D15, marizomib 0.7 mg/m^2 cohort
[12] = BEV 10 mg/kg IV, serum, C1D15, marizomib 0.8 mg/m^2 cohort
[13] = BEV 10 mg/kg IV, serum, C1D15, marizomib […]^2 cohort
[14] = BEV PK, C1D15, MRZ 0.7 mg/m^2 cohort (17 May 2016)
[15] = BEV PK, C1D15, MRZ 0.7 mg/m^2 cohort (Table 43)
[16] = BEV PK, C1D15, MRZ 0.8 mg/m^2 cohort (17 May 2016)
[17] = BEV PK, C1D15, MRZ 0.8 mg/m^2 cohort (Table 43)
[18] = across all dose cohorts, BEV 10 mg/kg with MRZ

Molecule: C[C@@]12OC(=O)[C@]1([C@@H](O)[C@@H]1C=CCCC1)NC(=O)[C@@H]2CCCl [marizomib]
- CNS adverse events ([1]; 7 CNS-MM patients): no CNS adverse events
- tolerability ([1]; 7 CNS-MM patients): well-tolerated
- CNS adverse events [1, 5]: No CNS-adverse events
- Safety ([1]; Case 1): No adverse events were reported
- Safety ([1]; Case 1, listed as MRZ): MRZ was well tolerated
- Safety ([1]; Case 2): No adverse events or serious adverse events were observed
- Safety ([1]; Case 2, listed as MRZ): No concerning AEs
- Safety ([1]; Case 3): grade 1 adverse event
- Safety ([1]; Case 3, listed as MRZ): Grade 1 shortness of
- Safety ([1]; Case 4): well-tolerated with no adverse events reported
- Safety ([1]; Case 4, listed as MRZ): Tolerated treatment
- Safety ([1]; Case 5): serious adverse event
- Safety ([1]; Case 5, listed as MRZ): AE due to PD,
- Safety ([1]; Case 6): grade 2 adverse event
- Safety ([1]; Case 6, listed as MRZ): Overall, no safety
- Safety ([1]; Case 7, listed as MRZ): No adverse events or safety concerns were noted; also recorded: No AEs or safety
- activity in intracranial GBM xenograft (D54MG cells): Active
- complete responses (CNS-MM; 7 CNS-MM patients): two
- partial responses (CNS-MM; 7 CNS-MM patients): 3
- patients with at least a partial response (overall response rate) (CNS-MM; 7 CNS-MM patients): five of seven
- patients with survival greater than four months (CNS-MM; 7 CNS-MM patients): four of seven
- patients with at least a partial response (overall response rate) (CNS-MM; 7 CNS-MM patients, listed as MRZ): Five of 7
- complete responses (CNS-MM; [5]): 2
- patients with at least a partial response (overall response rate) (CNS-MM; [5]): 5/7
- Neurological Assessment (CNS-MM; Case 1): Reduction of CSF plasma cells
- reduction of CSF plasmacytosis (CNS-MM; Case 1): 99%
- Reduction of CSF plasma cells (CNS-MM; Case 1, C2D1): (90% C2D1)
- Neurological Assessment (CNS-MM; Case 2): sustained complete resolution of CSF plasmacytosis; also recorded: No CSF plasma cells detected; also recorded: Stable remission by MRI
- Response (CNS-MM; Case 2, ongoing C13): CR by serology; stable remission
- Neurological Assessment (CNS-MM; Case 3): undetectable CSF plasmacytosis since C3D1; also recorded: No evidence of FDG-avid lesions
- IMWG Assessment Systemic Disease (CNS-MM; Case 3: MRZ 0.8 mg/m^2 + POM 4 mg + DEX 20 mg): ongoing complete response
- Response (CNS-MM; Case 3, ongoing C8): CR - no evidence of active disease:
- Neurological Assessment (CNS-MM; Case 4): Transient improvement through
- Response (CNS-MM; Case 4, discontinued on C3): Best response PR with PD after C3
- Response (CNS-MM; Case 5, discontinued C1): Pleural effusion following C1D1
- Neurological Assessment (CNS-MM; Case 6): resolution of CNS disease; also recorded: Complete resolution of central
- reduction in systemic paraprotein (CNS-MM; Case 6): 77%
- Paraprotein after decrease (CNS-MM; Case 6, from 18 g/L): 18 to 4 g/L
- IMWG Assessment Systemic Disease (CNS-MM; Case 7: MRZ 0.7 mg/m^2 + LEN 25 mg + DEX 10 mg): PD (increase in tumor of ≥25% from lowest response value)
- IMWG Assessment Systemic Disease (CNS-MM; Case 7: MRZ 0.7 mg/m^2 + LEN 25 mg + DEX 10 mg, listed as MRZ): progressive disease
- distribution to brain relative to plasma Cmax ([2]; quantitative whole body autoradiography): ~30%
- CNS biodistribution compared with blood levels ([2]; radiolabeled marizomib): 30%
- proteasome activity in brain (20S Proteasome; mouse): inhibits proteasome activity
- CT-L activity in brain (20S Proteasome; tumor-bearing mouse): inhibits CT-L activity in brain
- 20S Proteasome Activity (% Inhibition), Blood, Peak (2 hr) (20S Proteasome; [6]): 99%
- 20S Proteasome Activity (% Inhibition), Blood, Trough (20S Proteasome; [6]): 87%
- 20S Proteasome Activity (% Inhibition), Brain, Peak (2 hr) (20S Proteasome; [7]): 94% and 98%
- 20S Proteasome Activity (% Inhibition), Brain, Trough (20S Proteasome; [7]): 52% and 41%
- 20S Proteasome Activity (% Inhibition), Tumor, Peak (2 hr) (20S Proteasome; [8]): 56% and 77%
- 20S Proteasome Activity (% Inhibition), Tumor, Trough (20S Proteasome; [8]): 15% and 0%
- Cmax (clinical; blood, iv, 0.7 mg/m2): 64.9 ± 1.73 ng/mL
- Cmax (clinical; blood, iv, 0.8 mg/m2): 26.5 ± 7.92 ng/mL
- Tmax (clinical; [9]): 11.3 min
- half-life (clinical; [9]): 32 min
- AUC(0-t) (clinical; [10]): 4.05 ng·h/mL
- Cmax (clinical; [10]): 26 ± 8 ng/mL
- Tmax (clinical; [10]): 0 min
- half-life (clinical; [10]): 7.6 ± 0.9 min
- Tmax (clinical; whole blood, intravenous, […]2): 4 min
- half-life (clinical; whole blood, intravenous, […]2): 8.8 ± 0.8 min
- AUC(0-t) (clinical; whole blood, iv, 0.7 mg/m2): 3.22 ng·h/mL
- Tmax (clinical; whole blood, iv, 0.7 mg/m2): 21.3 min
- Vd (clinical; whole blood, iv, 0.7 mg/m2): 48.3 ± 16.1 L
- half-life (clinical; whole blood, iv, 0.7 mg/m2): 16 ± 8.08 min
- AUC(0-t) (clinical; whole blood, iv, 0.8 mg/m2): 6.53 ng·h/mL
- Tmax (clinical; whole blood, iv, 0.8 mg/m2): 8 min
- half-life (clinical; whole blood, iv, 0.8 mg/m2): 7.27 ± 0.423 min
- Tmax (clinical; whole blood, iv, […]2): 15.5 min
- Vd (clinical; whole blood, iv, […]2): 54.4 ± 10.6 L
- half-life (clinical; whole blood, iv, […]2): 8.2 ± 0.8 min

Molecule: bevacizumab [reference compound]
- Cmax of bevacizumab at Day 0 [3]: 284 µg/mL
- Cmax D1 ([4]; BEV 10 mg/kg IV, serum, C1D1, marizomib 0.7 mg/m^2 cohort): 193 ± 8 (2) μg/mL
- Cmax D1 ([4]; BEV 10 mg/kg IV, serum, C1D1, marizomib 0.8 mg/m^2 cohort): 267 ± 13.3 (3) μg/mL
- Cmax D1 ([4]; BEV 10 mg/kg IV, serum, C1D1, marizomib […]^2 cohort): 275 ± 37.5 (6) μg/mL
- Cmax D15 [4, 11]: 402 ± 123 (3) μg/mL
- Cmin D15 [4, 11]: 81.1 ± 17.4 (2) μg/mL
- Cmax D15 [4, 12]: 380 ± 56.5 (2) μg/mL
- Cmin D15 [4, 12]: 85.0 ± 9.87 (3) μg/mL
- Cmax D15 [4, 13]: 351 ± 46.6 (5) μg/mL
- Cmin D15 [4, 13]: 89.7 ± 6.2 (6) μg/mL
- Cmax D1 ([4]; BEV PK, C1D1, MRZ 0.7 mg/m^2 cohort (17 May 2016)): 282 ± 89 (3) μg/mL
- Cmax D1 ([4]; BEV PK, C1D1, MRZ 0.7 mg/m^2 cohort (Table 43)): 193 ± 8 (2) μg/mL
- Cmax D1 ([4]; BEV PK, C1D1, MRZ 0.8 mg/m^2 cohort (17 May 2016)): 267 ± 133 (3) μg/mL
- Cmax D1 ([4]; BEV PK, C1D1, MRZ 0.8 mg/m^2 cohort (Table 43)): 267 ± 13.3 (3) μg/mL
- Cmax D15 [4, 14]: 402 ± 123 (3) μg/mL
- Cmin D15 [4, 14]: 114 ± 34 (3) μg/mL
- Cmax D15 [4, 15]: 402 ± 123 (3) μg/mL
- Cmin D15 [4, 15]: 81.1 ± 17.4 (2) μg/mL
- Cmax D15 [4, 16]: 404 ± 40 (3) μg/mL
- Cmin D15 [4, 16]: 85 ± 9.9 (3) μg/mL
- Cmax D15 [4, 17]: 380 ± 56.5 (2) μg/mL
- Cmin D15 [4, 17]: 85.0 ± 9.87 (3) μg/mL
- Mean Day 15 Cmax of BEV ([4]; Study 108, BEV 10 mg/kg with MRZ): 379 µg/mL
- mean Cmax of bevacizumab on Day 1 [4, 18]: 275 µg/mL
- mean Cmax of bevacizumab on Day 1 (second value so printed) [4, 18]: 379 µg/mL
- mean Cmin of bevacizumab on Day 15 [4, 18]: 95 µg/mL
- BEV pharmacokinetic parameters: effect of co-administration [4]: not affected by co-administration
- BEV pharmacokinetic parameters: effect of co-administration ([4]; listed as BEV): no effect of MRZ on BEV pharmacokinetics; also recorded: not affected by co-administration of MRZ
